Converted amounts (≈) assume the structure as drawn. “And” between values parts separate entries of the source, which are not always exact repeats. Identical values can stand only once. Like-named read-outs stand apart in the source and are kept apart here.
How the values were obtained:
[1] = tested on: Mycobacterium tuberculosis H37Rv; experiment: Mycobacterium tuberculosis H37Rv Inhibition Assay (Whole Cell Assay); type: cell-based; details: ATCC 25618 / H37Rv, H37Rv strain (ATCC25618), Middlebrook 7H9, six days at 37° C., resazurin fluorescence after 48 hours
[2] = molecular target: T1, Mycobacterium tuberculosis InhA (Mycobacterium tuberculosis, UniProt P9WGR1); experiment: Mycobacterium tuberculosis InhA Inhibition Assay (Enzyme Assay); type: biochemical; details: 5 nM InhA, 50 μM DDCoA, 50 μM NADH, PIPES buffer pH 6.8, initial velocities of NADH consumption
T1 construct: made in house; host or cells: E. coli
Protocol: Mycobacterium tuberculosis InhA Inhibition Assay (Enzyme Assay)
InhA is able to reduce 2-trans enoyl-CoA esters with concomitant oxidation of NADH to NAD^+. The assay format is based on the kinetic detection of NADH consumption.
Assay for InhA inhibition is carried out with mycobacterium recombinant protein expressed and purified form E. coli. Standard assay conditions for the determination of kinetic constants and inhibitors activity use 5 nM of InhA, 50 μM of Dodecenoyl-CoA synthesized and purified as described by Quernard et al (DDCoA) and 50 μM of NADH as substrates, and it is carried out in 30 mM PIPES buffer pH 6.8, containing 0.05% of BSA. […] Triclosan is used as positive control in every experiment. One μl of compounds is added to the wells containing 25 μl of the DDCoA+NADH mix, the reaction is started by adding 50 μl of the enzyme solution. Fluorescence from NADH is followed at room temperature during 20 minutes in a fluorescent plate reader (excitation at 340 nm; emission at 480 nm). IC50 values are determined using initial velocities of NADH consumption.
Quernard A, Sacchettini J C, Dessen A, et al. Enzymatic characterization of the target for isoniazid in Mycobacterium tuberculosis. Biochemistry 1995; 34:8235-41.

T1 sequence (P9WGR1 whole entry, looked up): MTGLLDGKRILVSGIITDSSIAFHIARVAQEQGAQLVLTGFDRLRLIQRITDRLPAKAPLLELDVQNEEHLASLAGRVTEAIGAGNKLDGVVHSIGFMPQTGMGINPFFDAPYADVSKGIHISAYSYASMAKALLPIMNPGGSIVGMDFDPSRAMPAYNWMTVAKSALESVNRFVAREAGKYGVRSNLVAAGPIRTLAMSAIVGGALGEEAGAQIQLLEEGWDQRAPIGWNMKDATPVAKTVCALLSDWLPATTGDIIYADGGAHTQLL

Compound | MIC [1] | IC50 ([2]; read-out: IC50 value) | IC50 ([2]; IC50 value)
Cc1cc(C)n(C(C)c2nnc(Nc3ccn(Cc4c(F)cccc4Cl)n3)s2)n1 (racemic) [Example 28, N-{1-[(2-chloro-6-fluorophenyl)methyl]-1H-pyrazol-3-yl}-5-[1-(3,5-dimethyl-1H-pyrazol-1-yl)ethyl]-1,3,4-thiadiazol-2-amine] | ≤ 1 µM | < 116 nM | –
Cc1csc(C(C)(O)c2nnc(Nc3ccn(Cc4c(F)cccc4Cl)n3)s2)n1 (racemic) [Example 30, 1-[5-({1-[(2-chloro-6-fluorophenyl)methyl]-1H-pyrazol-3-yl}amino)-1,3,4-thiadiazol-2-yl]-1-(4-methyl-1,3-thiazol-2-yl)ethanol] | ≤ 1 µM | < 111 nM | –
Cc1ccn(C(C)c2nnc(Nc3ccn(Cc4c(F)cccc4Cl)n3)s2)n1 (racemic) [Example 38, N-{1-[(2-chloro-6-fluorophenyl)methyl]-1H-pyrazol-3-yl}-5-[1-(3-methyl-1H-pyrazol-1-yl)ethyl]-1,3,4-thiadiazol-2-amine] | ≤ 1 µM | < 120 nM | –
Cc1csc(C(C)(O)c2nnc(Nc3ccn(Cc4c(F)cccc4F)n3)s2)n1 (racemic) [Example 78, 1-[5-({1-[(2,6-difluorophenyl)methyl]-1H-pyrazol-3-yl}amino)-1,3,4-thiadiazol-2-yl]-1-(4-methyl-1,3-thiazol-2-yl)ethanol] | ≤ 1 µM | – | < 115 nM
Cc1ccn([C@H](C)c2nnc(Nc3ccn(Cc4c(F)cccc4Cl)n3)s2)n1 (single isomer, unassigned) [Example 66] | 1 to 4 µM (≈ 0.418 to 1.67 µg/mL) | < 120 nM | –
Cc1ccn([C@@H](C)c2nnc(Nc3ccn(Cc4c(F)cccc4Cl)n3)s2)n1 (single isomer, unassigned) [Example 67] | 1 to 4 µM (≈ 0.418 to 1.67 µg/mL) | < 120 nM | –
Cc1cc(C)n([C@H](C)c2nnc(Nc3ccn(Cc4c(F)cccc4Cl)n3)s2)n1 (single isomer, unassigned) [Example 68] | > 10 µM | < 116 nM | –
Cc1cc(C)n([C@@H](C)c2nnc(Nc3ccn(Cc4c(F)cccc4Cl)n3)s2)n1 (single isomer, unassigned) [Example 69] | 1 to 4 µM (≈ 0.432 to 1.73 µg/mL) | < 116 nM | –
Cc1csc([C@](C)(O)c2nnc(Nc3ccn(Cc4c(F)cccc4Cl)n3)s2)n1 (single isomer, unassigned) [Example 70] | ≤ 1 µM | < 111 nM | –
Cc1csc([C@@](C)(O)c2nnc(Nc3ccn(Cc4c(F)cccc4Cl)n3)s2)n1 (single isomer, unassigned) [Example 71] | 1 to 4 µM (≈ 0.451 to 1.8 µg/mL) | < 111 nM | –
Cc1csc([C@](C)(O)c2nnc(Nc3ccn(Cc4c(F)cccc4F)n3)s2)n1 (single isomer, unassigned) [Example 89] | – | – | 4.6 nM and < 115 nM
Cc1csc([C@@](C)(O)c2nnc(Nc3ccn(Cc4c(F)cccc4F)n3)s2)n1 (single isomer, unassigned) [Example 90] | > 10 µM | – | 115 to 230 nM
Cc1cc(C)n(C(C)c2nnc(Nc3ccn(Cc4ccccc4C(F)(F)F)n3)s2)n1 (stereo not drawn) [Example 1, 5-[1-(3,5-dimethyl-1H-pyrazol-1-yl)ethyl]-N-(1-{[2-(trifluoromethyl)phenyl]methyl}-1H-pyrazol-3-yl)-1,3,4-thiadiazol-2-amine] | 4 to 10 µM (≈ 1.79 to 4.47 µg/mL) | < 112 nM | –
Cc1cc(C)n(C(C)c2nnc(Nc3ccn(Cc4cc(Cl)ccc4Cl)n3)s2)n1 (stereo not drawn) [Example 2, N-{1-[(2,5-dichlorophenyl)methyl]-1H-pyrazol-3-yl}-5-[1-(3,5-dimethyl-1H-pyrazol-1-yl)ethyl]-1,3,4-thiadiazol-2-amine] | > 10 µM | < 112 nM | –
Cc1cc(C)n(C(C)c2nnc(Nc3ccn(Cc4ccccc4Br)n3)s2)n1 (stereo not drawn) [Example 3, N-{1-[(2-bromophenyl)methyl]-1H-pyrazol-3-yl}-5-[1-(3,5-dimethyl-1H-pyrazol-1-yl)ethyl]-1,3,4-thiadiazol-2-amine] | 1 to 4 µM (≈ 0.458 to 1.83 µg/mL) | < 109 nM | –
Cc1ccn(C(C)c2nnc(Nc3ccn(Cc4cc(Cl)ccc4Cl)n3)s2)n1 (stereo not drawn) [Example 4, N-{1-[(2,5-dichlorophenyl)methyl]-1H-pyrazol-3-yl}-5-[1-(3-methyl-1H-pyrazol-1-yl)ethyl]-1,3,4-thiadiazol-2-amine] | 4 to 10 µM (≈ 1.74 to 4.34 µg/mL) | < 115 nM | –
Cc1ccn(C(C)c2nnc(Nc3ccn(Cc4ccccc4Br)n3)s2)n1 (stereo not drawn) [Example 5, N-{1-[(2-bromophenyl)methyl]-1H-pyrazol-3-yl}-5-[1-(3-methyl-1H-pyrazol-1-yl)ethyl]-1,3,4-thiadiazol-2-amine] | 4 to 10 µM (≈ 1.78 to 4.44 µg/mL) | < 113 nM | –
Cc1cc(C)n(C(C)c2nnc(Nc3ccn(Cc4ccccc4F)n3)s2)n1 (stereo not drawn) [Example 6, 5-[1-(3,5-dimethyl-1H-pyrazol-1-yl)ethyl]-N-{1-[(2-fluorophenyl)methyl]-1H-pyrazol-3-yl}-1,3,4-thiadiazol-2-amine] | 1 to 4 µM (≈ 0.397 to 1.59 µg/mL) | < 126 nM | –
Cc1cc(C)n(C(C)c2nnc(Nc3ccn(Cc4cccc(Cl)c4F)n3)s2)n1 (stereo not drawn) [Example 7, N-{1-[(3-chloro-2-fluorophenyl)methyl]-1H-pyrazol-3-yl}-5-[1-(3,5-dimethyl-1H-pyrazol-1-yl)ethyl]-1,3,4-thiadiazol-2-amine] | ≤ 1 µM | < 116 nM | –
Cc1cc(C)n(C(C)c2nnc(Nc3ccn(Cc4cc(C(F)(F)F)ccc4C(F)(F)F)n3)s2)n1 (stereo not drawn) [Example 8, N-(1-{[2,5-bis(trifluoromethyl)phenyl]methyl}-1H-pyrazol-3-yl)-5-[1-(3,5-dimethyl-1H-pyrazol-1-yl)ethyl]-1,3,4-thiadiazol-2-amine] | > 10 µM | < 97 nM | –
Cc1cc(C)n(C(C)c2nnc(Nc3ccn(Cc4cc(F)ccc4C(F)(F)F)n3)s2)n1 (stereo not drawn) [Example 9, 5-[1-(3,5-dimethyl-1H-pyrazol-1-yl)ethyl]-N-(1-{[5-fluoro-2-(trifluoromethyl)phenyl]methyl}-1H-pyrazol-3-yl)-1,3,4-thiadiazol-2-amine] | > 10 µM | < 107 nM | –
Cc1cc(C)n(C(C)c2nnc(Nc3ccn(Cc4cccc(F)c4F)n3)s2)n1 (stereo not drawn) [Example 10, N-{1-[(2,3-difluorophenyl)methyl]-1H-pyrazol-3-yl}-5-[1-(3,5-dimethyl-1H-pyrazol-1-yl)ethyl]-1,3,4-thiadiazol-2-amine] | ≤ 1 µM | < 120 nM | –
Cc1cc(C)n(C(C)c2nnc(Nc3ccn(Cc4cc(C(F)(F)F)ccc4Cl)n3)s2)n1 (stereo not drawn) [Example 11, N-(1-{[2-chloro-5-(trifluoromethyl)phenyl]methyl}-1H-pyrazol-3-yl)-5-[1-(3,5-dimethyl-1H-pyrazol-1-yl)ethyl]-1,3,4-thiadiazol-2-amine] | > 10 µM | < 104 nM | –
Cc1cc(C)n(C(C)c2nnc(Nc3ccn(Cc4c(F)cccc4F)n3)s2)n1 (stereo not drawn) [Example 12, N-{1-[(2,6-difluorophenyl)methyl]-1H-pyrazol-3-yl}-5-[1-(3,5-dimethyl-1H-pyrazol-1-yl)ethyl]-1,3,4-thiadiazol-2-amine] | ≤ 1 µM | < 120 nM | –
Cc1ccn(C(C)c2nnc(Nc3ccn(Cc4cccc(C)c4F)n3)s2)n1 (stereo not drawn) [Example 13, N-{1-[(2-fluoro-3-methylphenyl)methyl]-1H-pyrazol-3-yl}-5-[1-(3-methyl-1H-pyrazol-1-yl)ethyl]-1,3,4-thiadiazol-2-amine] | ≤ 1 µM | < 126 nM | –
Cc1ccn(C(C)c2nnc(Nc3ccn(Cc4cccc(Cl)c4F)n3)s2)n1 (stereo not drawn) [Example 14, N-{1-[(3-chloro-2-fluorophenyl)methyl]-1H-pyrazol-3-yl}-5-[1-(3-methyl-1H-pyrazol-1-yl)ethyl]-1,3,4-thiadiazol-2-amine] | 1 to 4 µM (≈ 0.418 to 1.67 µg/mL) | < 120 nM | –
Cc1ccn(C(C)c2nnc(Nc3ccn(Cc4cccc(F)c4F)n3)s2)n1 (stereo not drawn) [Example 15, N-{1-[(2,3-difluorophenyl)methyl]-1H-pyrazol-3-yl}-5-[1-(3-methyl-1H-pyrazol-1-yl)ethyl]-1,3,4-thiadiazol-2-amine] | 1 to 4 µM (≈ 0.401 to 1.61 µg/mL) | < 125 nM | –
Cc1csc(C(C)c2nnc(Nc3ccn(Cc4cccc(F)c4F)n3)s2)n1 (stereo not drawn) [Example 16, N-{1-[(2,3-difluorophenyl)methyl]-1H-pyrazol-3-yl}-5-[1-(4-methyl-1,3-thiazol-2-yl)ethyl]-1,3,4-thiadiazol-2-amine] | 1 to 4 µM (≈ 0.418 to 1.67 µg/mL) | < 119 nM | –
Cc1cc([N+](=O)[O-])nn1Cc1nnc(Nc2ccn(Cc3c(Cl)cccc3Cl)n2)s1 [Example 65, N-{1-[(2,6-dichlorophenyl)methyl]-1H-pyrazol-3-yl}-5-[1-(5-methyl-3-nitro-1H-pyrazol-1-yl)methyl]-1,3,4-thiadiazol-2-amine] | – | > 1070 nM | –
Cc1csc(C(C)(O)c2nnc(Nc3ccn(Cc4cccc(N)c4F)n3)s2)n1 (stereo not drawn) [Example 88, 1-[5-({1-[(3-amino-2-fluorophenyl)methyl]-1H-pyrazol-3-yl}amino)-1,3,4-thiadiazol-2-yl]-1-(4-methyl-1,3-thiazol-2-yl)ethanol] | – | < 116 nM | –

Reference: patent publication US8524750B2, “(Pyrazol-3-yl)-1,3,4-thiadiazol-2-amine and (pyrazol-3-yl)-1,3,4-thiazol-2-amine compounds” (Glaxo Group Limited, priority 2009, dated 2013)
